Data reported in US20100292266A1, “Oxazolyl Piperidine Modulators of Fatty Acid Amide Hydrolase” (priority 2006, published 2010).

How the values were obtained:
[1] = rats; WO 02/087569; cited from earlier work
[2] = rats; WO 02/087569; cited from earlier work; remark: listed apart in the source
[3] = model of multiple sclerosis, Baker 2001; cited from earlier work
[4] = molecular target: T1, FAAH (Homo sapiens, UniProt O00519); details: WO 04/033652; cited from earlier work
T1 sequence (O00519 1-579): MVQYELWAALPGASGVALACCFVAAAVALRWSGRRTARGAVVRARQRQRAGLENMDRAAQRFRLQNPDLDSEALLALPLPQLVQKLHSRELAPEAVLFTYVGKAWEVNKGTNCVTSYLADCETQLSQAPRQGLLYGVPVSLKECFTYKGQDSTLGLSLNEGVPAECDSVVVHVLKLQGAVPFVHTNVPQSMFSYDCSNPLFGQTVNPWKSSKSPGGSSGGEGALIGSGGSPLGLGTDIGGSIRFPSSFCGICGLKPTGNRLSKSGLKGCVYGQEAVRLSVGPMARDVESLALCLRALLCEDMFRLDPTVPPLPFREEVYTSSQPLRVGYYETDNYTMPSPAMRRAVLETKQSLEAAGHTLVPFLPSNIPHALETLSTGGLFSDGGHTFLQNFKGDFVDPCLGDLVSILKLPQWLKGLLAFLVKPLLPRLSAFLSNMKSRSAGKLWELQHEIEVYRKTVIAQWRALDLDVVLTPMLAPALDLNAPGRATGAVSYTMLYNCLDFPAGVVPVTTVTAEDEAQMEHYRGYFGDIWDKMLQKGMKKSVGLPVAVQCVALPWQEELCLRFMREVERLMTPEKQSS

[5] = rats; WO 04/033652; cited from earlier work
[6] = cited from earlier work
[7] = rats; Kathuria 2003; cited from earlier work
[8] = Kathuria 2003; cited from earlier work
[9] = molecular target: T1, FAAH; test: Assay Method 1: FAAH assay, 3H-anandamide hydrolysis in cell homogenate; type: biochemical; set-up: expressed in transfected cells; details: T84 or transfected SK-N-MC cell homogenate, 80 nM 3H-AEA, 1 h rt, > = solubility limit or highest concentration tested
Method in brief: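 Homogenate of SK-N-MC cells stably transfected with human FAAH, incubated with compound and 80 nM final ³H-anandamide for 1 h at rt. Released ³H-ethanolamine separated from substrate on activated charcoal and counted by scintillation. ">" values reflect solubility limit or top concentration tested.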

[10] = molecular target: T2, Rat FAAH (Rattus norvegicus, UniProt P97612); test: Assay Method 2: FAAH assay, 3H-anandamide hydrolysis in cell homogenate; type: biochemical; details: transfected SK-N-MC cell homogenate, 80 nM 3H-AEA, 1 h rt, > = solubility limit or highest concentration tested
T2 construct: expressed in transfected cells
T2 sequence (P97612 1-579): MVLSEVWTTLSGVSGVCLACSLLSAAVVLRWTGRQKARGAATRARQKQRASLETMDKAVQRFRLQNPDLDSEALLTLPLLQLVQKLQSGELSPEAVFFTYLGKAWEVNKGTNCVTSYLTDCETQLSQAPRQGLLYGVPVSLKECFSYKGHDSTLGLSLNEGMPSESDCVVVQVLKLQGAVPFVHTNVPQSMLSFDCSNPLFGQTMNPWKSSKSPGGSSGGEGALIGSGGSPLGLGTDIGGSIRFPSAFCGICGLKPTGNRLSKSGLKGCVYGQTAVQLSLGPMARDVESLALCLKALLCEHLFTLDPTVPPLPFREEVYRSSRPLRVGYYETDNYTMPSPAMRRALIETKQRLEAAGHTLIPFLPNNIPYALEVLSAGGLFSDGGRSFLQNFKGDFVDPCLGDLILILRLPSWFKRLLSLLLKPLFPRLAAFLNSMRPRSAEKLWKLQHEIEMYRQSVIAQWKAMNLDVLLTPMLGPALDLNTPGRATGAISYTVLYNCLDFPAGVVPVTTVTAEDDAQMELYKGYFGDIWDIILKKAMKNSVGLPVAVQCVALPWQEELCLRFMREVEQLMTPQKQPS
Method in brief: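 Homogenate of SK-N-MC cells stably transfected with rat FAAH cDNA (G418-selected clones) incubated with compound and 80 nM final [3H]-anandamide for 1 h. Released [3H]-ethanolamine separated on activated charcoal filters by centrifugation and counted by scintillation. ">" values mark solubility limit or top concentration tested.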

Cc1nc(-c2ccccc2)c(-c2ccccc2)n1CCCCCCNC(=O)Oc1ccccc1F [BMS-1]
analgesic effect in Chung spinal nerve ligation model of neuropathic pain [1]: analgesic effect | analgesic effect in Hargraves test of acute thermal nociception [2]: analgesic effect

CCCCCCCCCCCCCCCCS(=O)(=O)F [AM374]
spasticity in CREAE mice [3]: significantly reduce spasticity

O=C(CCCCCCc1ccccc1)c1ncc(-c2ccccn2)o1 [OL-135]
inhibition of FAAH [4]: potent inhibitor of FAAH | analgesic activity in tail emersion test of thermal nociception [5]: analgesic activity | analgesic activity in hot plate test of thermal nociception ([6]; rats, WO 04/033652): analgesic activity

NC(=O)c1cccc(-c2cccc(OC(=O)NC3CCCCC3)c2)c1 [URB-597]
efficacy in zero plus maze model of anxiety [7]: efficacy | analgesic efficacy in rat formalin test [8]: analgesic efficacy | analgesic efficacy in rat hot plate test ([6]; rat, Kathuria 2003): analgesic efficacy

O=C(c1ncco1)C1CCN(Cc2ccc(Br)c(Br)c2)CC1 [Example 87, [1-(3,4-Dibromo-benzyl)-piperidin-4-yl]-oxazol-2-yl-methanone]
IC50 [9]: 0.002 µM | IC50 [10]: 0.002 µM

COc1ccccc1C(=O)N1CCC(C(=O)c2ncco2)CC1 [Example 8, [1-(2-Methoxy-benzoyl)-piperidin-4-yl]-oxazol-2-yl-methanone]
IC50 [9]: > 10 µM | IC50 [10]: > 10 µM

CCOc1cccc(CN2CCC(C(=O)c3ncco3)CC2)c1 [Example 29, [1-(3-Ethoxy-benzyl)-piperidin-4-yl]-oxazol-2-yl-methanone]
IC50 [9]: 0.17 µM | IC50 [10]: 1.4 µM

Cn1c(CN2CCC(C(=O)c3ncco3)CC2)nc2ccccc21 [Example 49, [1-(1-Methyl-1H-benzoimidazol-2-ylmethyl)-piperidin-4-yl]-oxazol-2-yl-methanone]
IC50 [9]: 0.037 µM | IC50 [10]: 0.091 µM
